Experimental data as given in US6878738B1, “Anti-inflammatory oxo derivatives and hydroxy derivatives of pyrrolizines, and their pharmaceutical use” (Merckle GmbH, priority 1999, dated 2005).
Where two headings read alike, the source gives them in different places.

Assays:
Cyclooxygenase-1 = target: T1, Cyclooxygenase-1 (Homo sapiens, UniProt P23219); experiment: Inhibition of cyclooxygenase-1: prostaglandin E2 formed from human platelets after calcium ionophore, ELISA; assay type: cell-based; settings: PGE2, read-out: IC50 COX-1
T1 construct: endogenous in cells; host or cells: human platelets isolated over a Percoll gradient
T1 sequence (P23219 24-599): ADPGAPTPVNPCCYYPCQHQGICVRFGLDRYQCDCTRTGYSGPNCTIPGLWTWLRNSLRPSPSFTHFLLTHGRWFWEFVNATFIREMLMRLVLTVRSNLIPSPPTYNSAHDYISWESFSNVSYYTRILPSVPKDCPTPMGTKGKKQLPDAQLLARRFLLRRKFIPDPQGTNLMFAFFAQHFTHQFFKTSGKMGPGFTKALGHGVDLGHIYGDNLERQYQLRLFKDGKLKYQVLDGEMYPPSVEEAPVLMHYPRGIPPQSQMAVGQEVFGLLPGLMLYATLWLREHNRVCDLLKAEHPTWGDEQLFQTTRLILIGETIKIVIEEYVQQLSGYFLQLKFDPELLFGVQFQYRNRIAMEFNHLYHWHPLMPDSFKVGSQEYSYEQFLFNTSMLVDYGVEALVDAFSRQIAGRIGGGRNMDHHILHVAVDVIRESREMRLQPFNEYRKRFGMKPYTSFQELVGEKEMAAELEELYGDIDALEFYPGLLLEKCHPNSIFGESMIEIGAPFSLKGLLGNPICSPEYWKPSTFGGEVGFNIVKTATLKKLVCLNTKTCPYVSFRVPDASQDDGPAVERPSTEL
Procedure: Test System for Determination of the Inhibition of Cyclooxygenase-1
In this test system, the amount of prostaglandin E2 formed from human platelets after addition of calcium ionophore is determined by means of ELISA. In this process, the platelets are obtained after centrifugation over a discontinuous Percoll® gradient. The enzyme reaction and the determination of the metabolites formed is carried out in principle as in the determination of 5-lipoxygenase inhibition. Differences exist with respect to the incubation time. Furthermore, the addition of a thromboxane synthase inhibitor is necessary (see Arch. Pharm. Med. Chem. 330, 307-312 (1997)).

5-lipoxygenase = target: T2, 5-lipoxygenase (Homo sapiens, UniProt P09917); experiment: Inhibition of 5-lipoxygenase: LTB4 formation in human granulocytes stimulated with calcium ionophore A 23187, ELISA; assay type: cell-based; settings: read-out: IC50 5-LO
T2 construct: Human granulocytes are used as a source of 5-lipoxygenase; endogenous in cells; host or cells: human granulocytes isolated from heparinised blood
T2 sequence (P09917 1-674): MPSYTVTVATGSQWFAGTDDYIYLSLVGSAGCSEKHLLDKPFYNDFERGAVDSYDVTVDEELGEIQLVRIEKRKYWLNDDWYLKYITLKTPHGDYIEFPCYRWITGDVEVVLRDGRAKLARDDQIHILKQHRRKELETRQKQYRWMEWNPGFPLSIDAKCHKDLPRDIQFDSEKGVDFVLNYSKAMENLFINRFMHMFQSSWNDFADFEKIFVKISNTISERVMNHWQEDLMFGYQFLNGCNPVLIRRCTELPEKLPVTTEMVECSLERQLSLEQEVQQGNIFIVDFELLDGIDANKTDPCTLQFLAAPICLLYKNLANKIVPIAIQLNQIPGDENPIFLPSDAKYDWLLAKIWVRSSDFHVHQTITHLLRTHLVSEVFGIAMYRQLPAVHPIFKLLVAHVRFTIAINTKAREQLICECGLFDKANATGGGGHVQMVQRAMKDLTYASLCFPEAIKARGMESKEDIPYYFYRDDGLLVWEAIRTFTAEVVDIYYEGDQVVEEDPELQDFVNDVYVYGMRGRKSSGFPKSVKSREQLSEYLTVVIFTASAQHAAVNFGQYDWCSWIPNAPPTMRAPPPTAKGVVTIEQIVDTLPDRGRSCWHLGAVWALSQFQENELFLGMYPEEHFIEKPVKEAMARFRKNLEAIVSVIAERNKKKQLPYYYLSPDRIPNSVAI
Procedure: Test System for Determination of the Inhibition of 5-Lipoxygenase
Human granulocytes are used as a source of 5-lipoxygenase. By means of stimulation with calcium ionophore A 23187, LTB4 (leukotriene B4) is formed from endogenous arachidonic acid. The granulocytes are isolated and the enzyme reaction is carried out according to known processes (see Arch. Pharm. Med. Chem. 330, 307-312 (1997)).
The blood, protected from clotting with heparin, is centrifuged over a discontinuous Percoll® gradient and the granulocyte layer is removed by pipette. After lysis of the erythrocytes, the granulocytes are washed a number of times and then adjusted to a specific cell count. The enzyme reaction is then started in the presence or absence of the test substance after addition of Ca^2+ using calcium ionophore […]. The synthesis of the leukotrienes is stopped after 1.5 minutes. The samples are centrifuged off and the supernatant is diluted. LTB4 is determined quantitatively by means of ELISA.

[1] = Determination of the partition coefficient n-octanol/water (OECD Guideline No. 117); assay type: physicochemical
Procedure: Determination of the Partition Coefficient
The partition coefficient P of the compounds was determined in the system n-octanol/water according to the OECD Guidline for Testing Chemicals, No. 117.

[2] = target: T3, COX2 (from sheep placenta) (Ovis aries, UniProt P79208); experiment: Inhibition of cyclooxygenase-2: COX2 stimulated with arachidonic acid, PGE2 by ELISA; assay type: biochemical; settings: arachidonic acid 5 μM, read-out: IC50 COX-2
T3 construct: COX2 (from sheep placenta) is preincubated with test substance at 4° C. for 10 min; from tissue; host or cells: sheep placenta
T3 sequence (P79208 17-603): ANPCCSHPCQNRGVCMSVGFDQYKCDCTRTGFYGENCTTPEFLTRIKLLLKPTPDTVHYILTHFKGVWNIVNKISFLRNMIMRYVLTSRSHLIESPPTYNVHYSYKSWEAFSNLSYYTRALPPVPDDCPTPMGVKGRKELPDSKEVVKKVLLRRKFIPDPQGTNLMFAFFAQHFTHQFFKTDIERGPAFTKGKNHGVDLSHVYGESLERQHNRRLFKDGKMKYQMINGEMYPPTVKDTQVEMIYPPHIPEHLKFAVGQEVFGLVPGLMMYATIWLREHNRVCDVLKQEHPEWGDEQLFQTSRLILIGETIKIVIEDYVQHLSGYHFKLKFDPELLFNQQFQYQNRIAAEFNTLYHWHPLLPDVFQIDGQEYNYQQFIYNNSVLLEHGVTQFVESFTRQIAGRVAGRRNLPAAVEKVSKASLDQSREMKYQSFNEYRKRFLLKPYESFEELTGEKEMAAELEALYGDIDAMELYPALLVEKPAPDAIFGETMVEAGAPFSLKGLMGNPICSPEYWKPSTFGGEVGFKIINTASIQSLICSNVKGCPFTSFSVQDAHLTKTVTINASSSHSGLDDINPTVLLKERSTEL
Procedure: Test System for Determination of the Inhibition of Cyclooxygenase-2
COX2 (from sheep placenta) is preincubated with test substance at 4° C. for 10 min, then stimulated with arachidonic acid (5 μM) at 25° C. for 10 min. […] The determination is carried out at 3 dilutions (10^−7, 10^−6, 10^−5 M), and the PGE2 concentrations are quantified by means of ELISA (see Mitchell, J. A. et al. Proc. Nat. Acad. Sci 90: 11693-11697 (1993)).

Row | IC50 (Cyclooxygenase-1) [nM] | chromatographic logP ([1]; pH 2.5, read-out: Log P pH 2.5) | chromatographic logP ([1]; pH 7.5, read-out: Log P pH 7.5) | melting point [°C] | IC50 [2] [µM] | Compound | IC50 (5-lipoxygenase) [nM]
1 | 60 | 4.5 | 1.7 | – | – | COC1c2c(-c3ccccc3)c(-c3ccc(Cl)cc3)c(CC(=O)O)n2CC1(C)C (centres unmarked) [Example 14, 6-(4-Chlorophenyl)-2,3-dihydro-1-methoxy-2,2-dimethyl-7-phenyl-1H-pyrrolizin-5-ylacetic Acid] | –
2 | – | – | – | 193 | – | CCOC(=O)C(=O)c1c(-c2ccc(Cl)cc2)c(-c2ccccc2)c2n1CC(C)(C)C2O (centres unmarked) [Example 11, Ethyl 6-(4-Chlorophenyl)-2,3-dihydro-1-hydroxy-2,2-dimethyl-7-phenyl-1H-pyrrolizin-5-yl-2-oxoacetate] | –
3 | – | – | – | 133 | – | Cc1c(-c2ccc(Cl)cc2)c(-c2ccccc2)c2n1CC(C)(C)C2O (centres unmarked) [Example 15, 6-(4-Chlorophenyl)-2,3-dihydro-1-hydroxy-2,2,5-trimethyl-7-phenyl-1H-pyrrolizine] | –

Further lines, the compound ahead of its results:

Row | Compound | IC50 (Cyclooxygenase-1) [nM] | chromatographic logP ([1]; pH 2.5, read-out: Log P pH 2.5) | chromatographic logP ([1]; pH 7.5, read-out: Log P pH 7.5) | melting point [°C] | IC50 [2] [µM] | IC50 (5-lipoxygenase) [nM]
4 | CC1(C)Cn2cc(-c3ccc(Cl)cc3)c(-c3ccccc3)c2C1=O [Example 6, 6-(4-Chlorophenyl)-2,3-dihydro-2,2-dimethyl-1-oxo-7-phenyl-1H-pyrrolizine] | 950 | 5 | 5.1 | – | – | 230
5 | CC1(C)Cc2c(-c3ccccc3)c(-c3ccc(Cl)cc3)c(OC(=O)c3ccccc3)n2C1 [Example 26, 2-(4-Chlorophenyl)-6,6-dimethyl-1-phenyl-6,7-dihydro-5H-pyrrolizin-3-yl Benzoate] | – | – | – | 193 | – | –
6 | CC1(C)Cn2c(CC(=O)O)c(-c3ccc(Cl)cc3)c(-c3ccccc3)c2C1=O [Example 18, 6-(4-Chlorophenyl)-2,3-dihydro-2,2-dimethyl-1-oxo-7-phenyl-1H-pyrrolizin-5-ylacetic Acid] | 46 | 3.3 | 1.1 | – | 2.1 | –
7 | CC1(C)Cc2c(-c3ccccc3)c(-c3ccc(Cl)cc3)c(CC(=O)O)n2C1 [ML 3000, reference compound] | 210 | 4.8 | 1.9 | – | 4.7 | 180
8 | COC1c2c(-c3ccccc3)c(-c3ccc(Cl)cc3)c(C)n2CC1(C)C (centres unmarked) [Example 16, 6-(4-Chlorophenyl)-2,3-dihydro-1-methoxy-2,2,5-trimethyl-7-phenyl-1H-pyrrolizine] | 500 | 5.1 | 6.7 | – | 7.5 | –
